Laboratory results taken from ChEMBL document CHEMBL1201862, “PubChem BioAssay data set” (2004).
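Cells were grown in 96-well plates and exposed to each compound for 48 hours at five concentrations; endpoints were interpolated linearly between bracketing concentrations, or set to the highest concentration if not reached. GI50 marks 50% less growth.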 The source made the active and inactive calls. Rule as the data show it: active = GI50 up to about 1.1 µM and inactive = higher.

Assays:
Assay in all cases: inhibition of tumour cell growth, NCI panel, 48 h
SR = system: SR
SF-268 = system: SF-268
CCRF-CEM = system: CCRF-CEM
COLO 205 = system: COLO 205
SK-MEL-5 = system: SK-MEL-5
HT-29 = system: HT-29
HL-60 = system: HL-60
NCI-H226 = system: NCI-H226
K562 = system: K562
CAKI-1 = system: CAKI-1
NCI-H23 = system: NCI-H23
SK-OV-3 = system: SK-OV-3
OVCAR-3 = system: OVCAR-3
OVCAR-8 = system: OVCAR-8
LOX IMVI = system: LOX IMVI
SN12C = system: SN12C
TK-10 = system: TK-10
OVCAR-5 = system: OVCAR-5
Malme-3M = system: Malme-3M
HOP-62 = system: HOP-62
RXF 393 = system: RXF 393
KM12 = system: KM12
NCI-H460 = system: NCI-H460
HOP-92 = system: HOP-92
NCI-H522 = system: NCI-H522
A498 = system: A498
MDA-MB-435 = system: MDA-MB-435
SK-MEL-2 = system: SK-MEL-2
UACC-257 = system: UACC-257
T47D = system: T47D
ACHN = system: ACHN
786-0 = system: 786-0
HCT-15 = system: HCT-15
Hs-578T = system: Hs-578T
SK-MEL-28 = system: SK-MEL-28
SW-620 = system: SW-620
MOLT-4 = system: MOLT-4
SF-539 = system: SF-539
UO-31 = system: UO-31
BT-549 = system: BT-549
NCI/ADR-RES = system: NCI/ADR-RES
SF-295 = system: SF-295
U-251 = system: U-251
MDA-MB-231 = system: MDA-MB-231
SNB-19 = system: SNB-19
M14 = system: M14
DU-145 = system: DU-145
OVCAR-4 = system: OVCAR-4
MCF7 = system: MCF7
HCT-116 = system: HCT-116
UACC-62 = system: UACC-62
MDA-N = system: MDA-N
RPMI-8226 = system: RPMI-8226
HCC 2998 = system: HCC 2998
EKVX = system: EKVX
A549 = system: A549
PC-3 = system: PC-3
SNB-75 = system: SNB-75
IGROV-1 = system: IGROV-1

Measured: GI50

O=C1/C(=C\c2cccc(Oc3ccccc3)c2)SC(c2ccccc2)N1c1ccccc1Cl (centres undefined)
41.9 µM: HCT-15
inactive: SR 19.3 µM | SF-268 33 µM | CCRF-CEM 6.87 µM | COLO 205 21.8 µM | SK-MEL-5 15.1 µM | HT-29 19.7 µM | HL-60 30.2 µM | NCI-H226 26.2 µM | K562 23 µM | CAKI-1 34 µM | NCI-H23 17.5 µM | SK-OV-3 25.4 µM | OVCAR-3 23.7 µM | OVCAR-8 21.9 µM | LOX IMVI 22.2 µM | SN12C 26 µM | TK-10 34.8 µM | OVCAR-5 76 µM | Malme-3M 33.6 µM | HOP-62 28.8 µM | RXF 393 20.8 µM | KM12 23 µM | NCI-H460 29.6 µM | HOP-92 14.6 µM | NCI-H522 13.6 µM | A498 46.1 µM | MDA-MB-435 23.3 µM | SK-MEL-2 27.9 µM | UACC-257 24.5 µM | T47D 27.7 µM | ACHN 39.6 µM | 786-0 25.6 µM | Hs-578T 16.5 µM | SK-MEL-28 41.2 µM | SW-620 33.3 µM | MOLT-4 34.8 µM | SF-539 19.1 µM | UO-31 31 µM | BT-549 21.3 µM | NCI/ADR-RES 27.9 µM | SF-295 33.8 µM | U-251 16.4 µM | MDA-MB-231 30.3 µM | SNB-19 24.4 µM | M14 30.8 µM | DU-145 32.9 µM | OVCAR-4 37.1 µM | MCF7 28.1 µM | HCT-116 14.9 µM | UACC-62 25.5 µM | MDA-N 20 µM | RPMI-8226 13 µM | HCC 2998 17.5 µM | EKVX 28.8 µM | A549 37.5 µM

c1ccc2c(c1)ccc1cc3cc(NCCCCNc4ccc5nc6c(ccc7ccccc76)cc5c4)ccc3nc12
inactive: SF-268 1.82 µM | COLO 205 1.69 µM | SK-MEL-5 1.32 µM | HT-29 2.61 µM | NCI-H226 1.73 µM | K562 1.63 µM | CAKI-1 2.01 µM | NCI-H23 2 µM | SK-OV-3 2.37 µM | OVCAR-3 1.99 µM | PC-3 1.31 µM | LOX IMVI 1.71 µM | SN12C 1.41 µM | TK-10 1.64 µM | Malme-3M 1.55 µM | RXF 393 1.58 µM | HOP-92 1.58 µM | NCI-H522 1.91 µM | A498 1.17 µM | MDA-MB-435 1.83 µM | SK-MEL-2 1.91 µM | UACC-257 1.72 µM | SNB-75 1.91 µM | ACHN 1.39 µM | Hs-578T 1.96 µM | IGROV-1 1.41 µM | SK-MEL-28 2.1 µM | SF-539 1.35 µM | UO-31 1.21 µM | BT-549 2 µM | NCI/ADR-RES 2.11 µM | SF-295 1.38 µM | M14 1.72 µM | DU-145 1.29 µM | OVCAR-4 2.22 µM | UACC-62 1.67 µM | EKVX 2.03 µM | A549 1.51 µM
0.701 µM: HCT-15
active: SR 0.0179 µM | CCRF-CEM 0.427 µM | OVCAR-8 0.167 µM | OVCAR-5 0.261 µM | HOP-62 0.212 µM | KM12 0.236 µM | NCI-H460 0.231 µM | T47D 0.455 µM | 786-0 0.291 µM | SW-620 0.195 µM | MOLT-4 0.184 µM | U-251 0.199 µM | MDA-MB-231 0.154 µM | SNB-19 0.352 µM | MCF7 0.262 µM | HCT-116 0.176 µM | RPMI-8226 0.323 µM

N#CSC1CCCCNC1=O (centres undefined)
11.8 µM: HCT-15
inactive: SR 6 µM | SF-268 11.8 µM | CCRF-CEM 5.55 µM | COLO 205 15.5 µM | HT-29 11.5 µM | HL-60 23.9 µM | NCI-H226 12 µM | K562 18.2 µM | CAKI-1 11.8 µM | NCI-H23 7.62 µM | SK-OV-3 9.98 µM | OVCAR-3 11.3 µM | OVCAR-8 14.7 µM | PC-3 13.6 µM | LOX IMVI 13.5 µM | SN12C 14.3 µM | TK-10 16.1 µM | OVCAR-5 2 µM | Malme-3M 14.4 µM | HOP-62 20.6 µM | RXF 393 13.7 µM | KM12 14.1 µM | NCI-H460 12.5 µM | HOP-92 2.78 µM | NCI-H522 8.09 µM | MDA-MB-435 13.9 µM | SK-MEL-2 11.4 µM | UACC-257 17.1 µM | T47D 13 µM | ACHN 14.9 µM | 786-0 14.7 µM | Hs-578T 16.1 µM | SK-MEL-28 13.4 µM | MOLT-4 2.48 µM | SF-539 12.7 µM | UO-31 15.1 µM | BT-549 5.93 µM | NCI/ADR-RES 12.8 µM | SF-295 14.8 µM | U-251 11.2 µM | MDA-MB-231 14.9 µM | SNB-19 15.2 µM | M14 16.7 µM | DU-145 11.1 µM | MCF7 4.07 µM | HCT-116 8.45 µM | UACC-62 12.3 µM | RPMI-8226 5.96 µM | HCC 2998 16.4 µM | EKVX 17.9 µM | A549 15.1 µM

CC[C@]1(Cc2ccc(OC)c(OC)c2)C=[N+]([O-])O[C@H](OC2CCCC2(c2ccccc2)c2ccccc2)[C@@H]1OC(C)=O (some centres undefined)
inactive: SR 2.79 µM | SF-268 4.76 µM | CCRF-CEM 4.1 µM | COLO 205 3.35 µM | SK-MEL-5 3.55 µM | HT-29 1.98 µM | HL-60 3.36 µM | K562 2.98 µM | CAKI-1 2.95 µM | NCI-H23 5.25 µM | SK-OV-3 14.5 µM | OVCAR-3 1.65 µM | OVCAR-8 2.67 µM | PC-3 4.66 µM | LOX IMVI 2 µM | SN12C 4.12 µM | TK-10 3.02 µM | OVCAR-5 16.7 µM | Malme-3M 2.03 µM | HOP-62 12.4 µM | RXF 393 1.52 µM | KM12 2.84 µM | NCI-H460 5.4 µM | HOP-92 3.21 µM | NCI-H522 2.83 µM | MDA-MB-435 2.41 µM | SK-MEL-2 4.62 µM | UACC-257 4.61 µM | SNB-75 2.82 µM | T47D 2.96 µM | ACHN 2.4 µM | 786-0 1.6 µM | Hs-578T 13.1 µM | IGROV-1 2.08 µM | SK-MEL-28 1.81 µM | SW-620 3.44 µM | MOLT-4 2.67 µM | UO-31 3.12 µM | BT-549 8.47 µM | NCI/ADR-RES 2.59 µM | SF-295 4.92 µM | U-251 7.94 µM | MDA-MB-231 11 µM | SNB-19 5.89 µM | M14 4.59 µM | DU-145 3.03 µM | OVCAR-4 4.84 µM | MCF7 2.43 µM | HCT-116 2.08 µM | UACC-62 2.68 µM | HCC 2998 2.74 µM | EKVX 5.89 µM | A549 3.54 µM
3.37 µM: HCT-15

Cc1ccc(NC(=O)/C(=N/N(C)C)C(C2OC(=O)c3ccccc32)[N+](=O)[O-])cc1 (centres undefined)
inactive: SF-268 > 100 µM | CCRF-CEM > 100 µM | SK-MEL-5 > 100 µM | HT-29 > 100 µM | HL-60 > 100 µM | NCI-H226 > 100 µM | K562 > 100 µM | CAKI-1 > 100 µM | NCI-H23 > 100 µM | SK-OV-3 > 100 µM | OVCAR-3 > 100 µM | OVCAR-8 > 100 µM | PC-3 > 100 µM | LOX IMVI > 100 µM | SN12C > 100 µM | TK-10 > 100 µM | OVCAR-5 > 100 µM | HOP-62 > 100 µM | RXF 393 > 100 µM | KM12 > 100 µM | NCI-H460 > 100 µM | HOP-92 > 100 µM | A498 > 100 µM | MDA-MB-435 > 100 µM | SK-MEL-2 > 100 µM | UACC-257 > 100 µM | SNB-75 > 100 µM | T47D > 100 µM | ACHN > 100 µM | 786-0 > 100 µM | Hs-578T > 100 µM | SK-MEL-28 > 100 µM | SW-620 > 100 µM | MOLT-4 > 100 µM | SF-539 > 100 µM | UO-31 > 100 µM | BT-549 > 100 µM | NCI/ADR-RES > 100 µM | SF-295 > 100 µM | U-251 > 100 µM | MDA-MB-231 > 100 µM | M14 > 100 µM | OVCAR-4 > 100 µM | MCF7 > 100 µM | HCT-116 > 100 µM | UACC-62 > 100 µM | MDA-N > 100 µM | RPMI-8226 > 100 µM | HCC 2998 > 100 µM | A549 > 100 µM
> 100 µM: HCT-15
